From patent US11957687B2 (REGENERON PHARMACEUTICALS, INC., priority 2019, dated 2024)
Several values for one entry are separate records, joined by “and”; a condition that tells them apart may be missing. Equal values may be shown once.

These compounds were tested against HSD17B13 (Homo sapiens (Human), UniProt Q7Z5P4) (assay: HSD17B13 enzymatic inhibition assay (150 nM or 50 nM HSD17B13)). Conditions: 50 nM HSD17B13; read-out: Inhibition of 50 nM of HSD17B13 IC50.
Chain of HSD17B13 (Q7Z5P4 other isoform, or with tags, fused parts or gaps): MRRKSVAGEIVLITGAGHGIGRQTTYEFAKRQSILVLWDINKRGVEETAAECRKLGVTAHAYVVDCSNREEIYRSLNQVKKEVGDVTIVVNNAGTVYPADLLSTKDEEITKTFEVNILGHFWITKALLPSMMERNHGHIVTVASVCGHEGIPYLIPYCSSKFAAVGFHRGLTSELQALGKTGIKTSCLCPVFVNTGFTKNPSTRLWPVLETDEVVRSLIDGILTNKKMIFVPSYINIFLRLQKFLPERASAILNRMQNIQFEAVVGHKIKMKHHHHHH
Type: biochemical
`O=C(NC1c2ccccc2Oc2cnccc21)c1ccc(C(F)(F)F)[nH]c1=O` (centres unmarked) [Compound 333, N-(5H-chromeno[2,3-c]pyridin-5-yl)-2-oxo-6-(trifluoromethyl)-1,2-dihydropyridine-3-carboxamide] was tested, and the IC50 was 740 nM.
In the case of `O=C(NC1CN(CCOCc2ccccc2)Cc2ccccc21)c1ccc(C(F)(F)F)[nH]c1=O` (centres unmarked) [Compound 315, N-(2-(2-(benzyloxy)ethyl)-1,2,3,4-tetrahydroisoquinolin-4-yl)-2-oxo-6-(trifluoromethyl)-1,2-dihydropyridine-3-carboxamide], the IC50 is reported as 960 nM.
For `O=C(NC1c2ccccc2Sc2ccc(CC(F)(F)F)cc21)c1ccc(C(F)(F)F)[nH]c1=O` (centres unmarked) [Compound 480, 2-oxo-N-(2-(2,2,2-trifluoroethyl)-9H-thioxanthen-9-yl)-6-(trifluoromethyl)-1,2-dihydropyridine-3-carboxamide], the IC50 was 400 nM.
Compound `Cc1ccc2c(c1)c(NC(=O)c1ccc(C(F)(F)F)[nH]c1=O)cn2C` [Compound 376, N-(1,5-dimethyl-1H-indol-3-yl)-2-oxo-6-(trifluoromethyl)-1,2-dihydropyridine-3-carboxamide] has an IC50 of 2840 nM.
In the case of `Cc1ccc2c(c1)S(=O)(=O)c1cc(C)ccc1C2NC(=O)c1cc(-c2ccncc2)c(C(F)(F)F)[nH]c1=O` [Compound 493, N-(3,6-dimethyl-10,10-dioxido-9H-thioxanthen-9-yl)-6-oxo-2-(trifluoromethyl)-1,6-dihydro-[3,4′-bipyridine]-5-carboxamide], the IC50 is reported as 90 nM.
With `Cc1ccc2c(c1)CNC(=O)C2NC(=O)c1ccc(C(F)(F)F)[nH]c1=O` (centres unmarked) [Compound 374, N-(7-methyl-3-oxo-1,2,3,4-tetrahydroisoquinolin-4-yl)-2-oxo-6-(trifluoromethyl)-1,2-dihydropyridine-3-carboxamide] the IC50 was 2490 nM.
With `Cc1ccc2c(c1)Oc1cc(C)ccc1C2NC(=O)c1ccc(C(C)(C)C)[nH]c1=O` [Compound 486, 6-(tert-butyl)-N-(3,6-dimethyl-9H-xanthen-9-yl)-2-oxo-1,2-dihydropyridine-3-carboxamide] the IC50 was over 10000 nM.
Compound `COc1ccc2c(c1)Oc1ccccc1C2NC(=O)c1ccc(C(F)(F)F)[nH]c1=O` (centres unmarked) [Compound 197, N-(3-methoxy-9H-xanthen-9-yl)-2-oxo-6-(trifluoromethyl)-1,2-dihydropyridine-3-carboxamide] has an IC50 of 1130 nM.
`CCc1cc(C(=O)NC(c2ccc(C)cc2)c2ccc(C)cc2)c(=O)[nH]c1C(F)(F)F` [Compound 119, N-(di-p-tolylmethyl)-5-ethyl-2-oxo-6-(trifluoromethyl)-1,2-dihydropyridine-3-carboxamide] was tested, and the IC50 was 250 nM.
`CC(F)(F)c1ccc(C(=O)NC2c3ccccc3Sc3ccccc32)c(=O)[nH]1` [Compound 423, 6-(1,1-difluoroethyl)-2-oxo-N-(9H-thioxanthen-9-yl)-1,2-dihydropyridine-3-carboxamide] was tested, and the IC50 was 790 nM.
`CN1CCN(c2ccc(C(NC(=O)c3ccc(C(F)(F)F)[nH]c3=O)c3ccccc3)cc2)CC1` (centres unmarked) [Compound 95, N-((4-(4-methylpiperazin-1-yl)phenyl)(phenyl)methyl)-2-oxo-6-(trifluoromethyl)-1,2-dihydropyridine-3-carboxamide] was tested, and the IC50 was 1460 nM and 350 nM.
For `CC(NC(=O)c1ccc(C(F)(F)F)[nH]c1=O)c1ccc(Cl)cc1Oc1cccc(Cl)c1` (centres unmarked) [Compound 222, N-(1-(4-chloro-2-(3-chlorophenoxy)phenyl)ethyl)-2-oxo-6-(trifluoromethyl)-1,2-dihydropyridine-3-carboxamide], the IC50 was 2170 nM.
`CN(C)Cc1ccc(C(NC(=O)c2ccc(C(F)(F)F)[nH]c2=O)c2ccccc2)cc1` (centres unmarked) [Compound 103, N-((4-((dimethylamino)methyl)phenyl)(phenyl)methyl)-2-oxo-6-(trifluoromethyl)-1,2-dihydropyridine-3-carboxamide] gave an IC50 of over 10000 nM.
In the case of `O=C(NC(c1ccccc1)c1ccc(O)c(F)c1)c1ccc(C(F)(F)F)[nH]c1=O` (centres unmarked) [Compound 16A, N-((3-fluoro-4-hydroxyphenyl)(phenyl)methyl)-2-oxo-6-(trifluoromethyl)-1,2-dihydropyridine-3-carboxamide], the IC50 is reported as 3640 nM.
`Cc1ccc2c(c1N)CCC2NC(=O)c1ccc(C(F)(F)F)[nH]c1=O` (centres unmarked) [Compound 266, N-(4-amino-5-methyl-2,3-dihydro-1H-inden-1-yl)-2-oxo-6-(trifluoromethyl)-1,2-dihydropyridine-3-carboxamide] was tested, and the IC50 was 640 nM.
`CCc1ccc2c(c1)C(NC(=O)c1ccc(C(F)(F)F)[nH]c1=O)c1ccccc1S2` (centres unmarked) [Compound 537, N-(2-ethyl-9H-thioxanthen-9-yl)-2-oxo-6-(trifluoromethyl)-1,2-dihydropyridine-3-carboxamide] was tested, and the IC50 was 150 nM.
For `Cc1cccc2c1C(NC(=O)c1ccc(C(F)(F)F)[nH]c1=O)c1cnccc1O2` (centres unmarked) [Compound 329, N-(9-methyl-10H-chromeno[3,2-c]pyridin-10-yl)-2-oxo-6-(trifluoromethyl)-1,2-dihydropyridine-3-carboxamide], the IC50 was 1680 nM.
`CCCc1cc(C(F)(F)F)[nH]c(=O)c1C(=O)NC1c2ccc(C)cc2Oc2cc(C)ccc21` [Compound 207, N-(3,6-dimethyl-9H-xanthen-9-yl)-2-oxo-4-propyl-6-(trifluoromethyl)-1,2-dihydropyridine-3-carboxamide] was tested, and the IC50 was 180 nM.
In the case of `CCC1Cc2ccc(C)cc2C1NC(=O)c1ccc(C(F)(F)F)[nH]c1=O` (centres unmarked) [Compound 290, N-(2-ethyl-6-methyl-2,3-dihydro-1H-inden-1-yl)-2-oxo-6-(trifluoromethyl)-1,2-dihydropyridine-3-carboxamide], the IC50 is reported as 80 nM.
`CCCC1=C(NC(=O)c2ccc(C(F)(F)F)[nH]c2=O)c2cc(C)ccc2C1O` (centres unmarked) [Compound 544, N-(1-hydroxy-5-methyl-2-propyl-1H-inden-3-yl)-2-oxo-6-(trifluoromethyl)-1,2-dihydropyridine-3-carboxamide] showed an IC50 of 1150 nM.
Compound `O=C(NC1c2ccccc2Oc2c(Cl)cccc21)c1ccc(C(F)(F)F)[nH]c1=O` (centres unmarked) [Compound 152, N-(4-chloro-9H-xanthen-9-yl)-2-oxo-6-(trifluoromethyl)-1,2-dihydropyridine-3-carboxamide] has an IC50 of 1030 nM.
Work on `CCc1ccc(C(NC(=O)c2ccc(C(F)(F)F)[nH]c2=O)c2ccc(C)cc2)cc1` (centres unmarked) [Compound 443, N-((4-ethylphenyl)(p-tolyl)methyl)-2-oxo-6-(trifluoromethyl)-1,2-dihydropyridine-3-carboxamide] yielded an IC50 of 120 nM.
Work on `Cc1ccc2c(c1)Oc1cccc(C)c1C2NC(=O)c1cc(CN(C)C)c(C(F)(F)F)[nH]c1=O` (centres unmarked) [Compound 526, N-(1,6-dimethyl-9H-xanthen-9-yl)-5-((dimethylamino)methyl)-2-oxo-6-(trifluoromethyl)-1,2-dihydropyridine-3-carboxamide] yielded an IC50 of 3780 nM.
Work on `COc1cc(C)ccc1C(NC(=O)c1ccc(C(F)(F)F)[nH]c1=O)c1ccccc1` (centres unmarked) [Compound 449, N-((2-methoxy-4-methylphenyl)(phenyl)methyl)-2-oxo-6-(trifluoromethyl)-1,2-dihydropyridine-3-carboxamide] yielded an IC50 of 970 nM.
With `Cc1ccc2c(c1)CC(C)CC2NC(=O)c1ccc(C(F)(F)F)[nH]c1=O` (centres unmarked) [Compound 391, N-(3,6-dimethyl-1,2,3,4-tetrahydronaphthalen-1-yl)-2-oxo-6-(trifluoromethyl)-1,2-dihydropyridine-3-carboxamide] the IC50 was 50 nM.
With `CCc1cc(C(=O)NC2c3ccc(Cl)cc3Oc3cccc(Cl)c32)c(=O)[nH]c1C(F)(F)F` (centres unmarked) [Compound 169, N-(1,6-dichloro-9H-xanthen-9-yl)-5-ethyl-2-oxo-6-(trifluoromethyl)-1,2-dihydropyridine-3-carboxamide] the IC50 was 780 nM.
With `O=C(NC1CCCc2c(-c3ccccc3)cccc21)c1ccc(C(F)(F)F)[nH]c1=O` (centres unmarked) [Compound 348, 2-oxo-N-(5-phenyl-1,2,3,4-tetrahydronaphthalen-1-yl)-6-(trifluoromethyl)-1,2-dihydropyridine-3-carboxamide] the IC50 was 9840 nM.
In the case of `O=C(NC(c1ccccc1)c1ccc(C2CCOCC2)cc1)c1ccc(C(F)(F)F)[nH]c1=O` (centres unmarked) [Compound 76, N-(phenyl(4-(tetrahydro-2H-pyran-4-yl)phenyl)methyl)-2-oxo-6-(trifluoromethyl)-1,2-dihydropyridine-3-carboxamide], the IC50 is reported as 1700 nM.
Work on `CC[C@H](O)C[C@@H](NC(=O)c1ccc(C(F)(F)F)[nH]c1=O)c1ccc(C)cc1` [Compound 555, N-((1R,3S)-3-hydroxy-1-(p-tolyl)pentyl)-2-oxo-6-(trifluoromethyl)-1,2-dihydropyridine-3-carboxamide] yielded an IC50 of over 10000 nM.
In the case of `Cc1ccc2sc(C)c(NC(=O)c3ccc(C(F)(F)F)[nH]c3=O)c2c1` [Compound 310, N-(2,5-dimethylbenzo[b]thiophen-3-yl)-2-oxo-6-(trifluoromethyl)-1,2-dihydropyridine-3-carboxamide], the IC50 is reported as 680 nM.
Compound `CSc1c(C)cccc1C(NC(=O)c1ccc(C(F)(F)F)[nH]c1=O)c1ccccc1` (centres unmarked) [Compound 247, N-((3-methyl-2-(methylthio)phenyl)(phenyl)methyl)-2-oxo-6-(trifluoromethyl)-1,2-dihydropyridine-3-carboxamide] has an IC50 of 930 nM.
Work on `O=C(Cc1ccccc1)Nc1ccc(C(NC(=O)c2ccc(C(F)(F)F)[nH]c2=O)c2ccccc2)cc1` (centres unmarked) [Compound 74, N-(phenyl(4-(2-phenylacetamido)phenyl)methyl)-2-oxo-6-(trifluoromethyl)-1,2-dihydropyridine-3-carboxamide] yielded an IC50 of 1370 nM.
In the case of `CCCc1ccc2c(c1)C(NC(=O)c1ccc(C(F)(F)F)[nH]c1=O)c1ccccc1S2` (centres unmarked) [Compound 458, 2-oxo-N-(2-propyl-9H-thioxanthen-9-yl)-6-(trifluoromethyl)-1,2-dihydropyridine-3-carboxamide], the IC50 is reported as 520 nM.
In the case of `Cc1cc(C(F)(F)F)[nH]c(=O)c1C(=O)NC1c2ccc(Cl)cc2Oc2cccc(Cl)c21` (centres unmarked) [Compound 200, N-(1,6-dichloro-9H-xanthen-9-yl)-4-methyl-2-oxo-6-(trifluoromethyl)-1,2-dihydropyridine-3-carboxamide], the IC50 is reported as over 10000 nM.
`Cc1cc2c(cn1)C(NC(=O)c1ccc(C(F)(F)F)[nH]c1=O)c1ccccc1O2` (centres unmarked) [Compound 325, N-(3-methyl-10H-chromeno[3,2-c]pyridin-10-yl)-2-oxo-6-(trifluoromethyl)-1,2-dihydropyridine-3-carboxamide] showed an IC50 of 180 nM.
